Laboratory results from US20050119190A1, “Inhibitors of the blood-clotting factor xa, production thereof and use of the same” (priority 2002, published 2005).
Where a name gives a salt, the structure may show the parent alone.

Legend:
[1] = target: T1, F Xa (bovine) (Bos taurus, UniProt P00743); test: Inhibition of F Xa, Ki by the method of Dixon, chromogenic substrate Moc-D-Nle-Gly-Arg-pNA; type: biochemical
T1 construct: purchased Diagnostic Reagents Ltd, Thame, GB
Protocol: The inhibitory effect was determined by incubating 200 μl of Tris buffer (0.05 M, 0.154 M NaCI, 5% ethanol, pH 8.0; contains the inhibitor), 25 μl of substrate (Moc-D-Nle-Gly-Arg-pNA in H2O; Pentapharm Ltd., Basel, Switzerland) and 50 μl of F Xa (bovine, Diagnostic Reagents Ltd, Thame, GB) at 25° C. After 3 min, the reaction was stopped by adding 25 μl of acetic acid (50%), and the absorption at 405 nm was determined using a microplate reader (MR 5000, Dynatech, Denkendorf, Germany). The Ki values were found by the method of Dixon (Biochem. J. 55, 170-171, 1953) by linear regression using a computer program. The Ki values are the average of at least three determinations.

[2] = target: F Xa; conditions: values from cited literature; cited from earlier work
[3] = Example 4, inhibition of factor Xa by inhibitors of formula I
[4] = Example 2, bovine F Xa, 25° C., pH 8.0, average of at least three determinations

T1 sequence (P00743 234-492 limits assumed): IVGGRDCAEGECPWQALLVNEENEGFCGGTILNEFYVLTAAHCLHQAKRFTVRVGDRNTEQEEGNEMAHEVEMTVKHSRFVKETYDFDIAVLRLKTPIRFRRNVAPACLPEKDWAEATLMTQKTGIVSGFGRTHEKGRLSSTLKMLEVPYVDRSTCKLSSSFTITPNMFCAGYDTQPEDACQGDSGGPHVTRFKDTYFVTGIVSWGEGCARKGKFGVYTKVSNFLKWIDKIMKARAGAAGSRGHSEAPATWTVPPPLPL
T1 sequence (P00743 41-180 partner limits assumed): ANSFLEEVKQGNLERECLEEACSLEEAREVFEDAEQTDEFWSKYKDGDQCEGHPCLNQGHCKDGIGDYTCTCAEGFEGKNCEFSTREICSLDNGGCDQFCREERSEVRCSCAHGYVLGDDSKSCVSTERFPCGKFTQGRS

Molecule	Ki [1, 3] [nM]	further results
4-(Aminomethyl)benzylsulfonyl-dSer(tBu)-Gly 4-amidinobenzylamide×2 TFA [Example 7]	29	–
N=C(N)c1ccc(C=C2CCCCC(=Cc3ccc(C(=N)N)cc3)C2=O)cc1 [BABCH]	–	Ki [2]: 13 nM
CC(C)(C)OC[C@@H](NS(=O)(=O)Cc1ccccc1)C(=O)NCC(=O)NCc1ccc(C(=N)N)cc1 [Bzl—SO2 D CH2—O—tBu H CH2 CH2, Benzylsulfonyl-D-Ser(tBu)-Gly 4-amidinobenzylamide]	–	Ki [1, 4]: 50 nM
CC(C)(C)OC[C@@H](NS(=O)(=O)Cc1ccccc1)C(=O)N[C@@H](CCC(=O)O)C(=O)NCc1ccc(C(=N)N)cc1 [Bzl—SO2 D CH2—O—tBu H CH—(CH2)2—COOH CH2, Benzylsulfonyl-D-Ser(tBu)-Glu 4-amidinobenzylamide×TFA]	6.5	Ki [1, 4]: 250 nM
CC(C)(C)OC[C@@H](NS(=O)(=O)Cc1ccccc1)C(=O)NC(CC(=O)O)C(=O)NCc1ccc(C(=N)N)cc1 (stereo partly drawn) [Bzl—SO2 D CH2—O—tBu H CH—CH2—COOH CH2]	–	Ki [1, 4]: 1200 nM
N=C(N)c1ccc(CNC(=O)CNC(=O)[C@@H](Cc2cccc(C(=N)N)c2)NS(=O)(=O)Cc2ccccc2)cc1 [No. 1, Benzylsulfonyl-dPhe(3-amidino)-Gly 4-(amidino)benzylamide×2 TFA]	34	–
CC(C)(C)OC[C@@H](NS(=O)(=O)Cc1ccccc1)C(=O)N[C@@H](CO)C(=O)NCc1ccc(C(=N)N)cc1 [No. 11, Bzls-dSer(tBu)-Ser 4-(amidino)benzylamide×TFA]	28	–
CC(C)(C)OC[C@@H](NS(=O)(=O)Cc1cccc(C(=O)O)c1)C(=O)NCC(=O)NCc1ccc(C(=N)N)cc1 [No. 19, 3-(HOOC)Benzylsulfonyl-dSer(tBu)-Gly 4-amidinobenzylamide×TFA]	27	–
N=C(N)NCCC[C@@H](NS(=O)(=O)CC1CCCCC1)C(=O)NCC(=O)NCc1ccc(C(=N)N)cc1 [compound 2]	6.7	–
CC(C)(C)OC[C@@H](NS(=O)(=O)Cc1ccccc1)C(=O)N[C@@H](CO)C(=O)NCc1ccc(C(=N)N)cc1 [compound 11]	54	–
N=C(N)c1ccc(CNC(=O)C(CCCCN)NC(=O)C(CC2CCCCC2)NS(=O)(=O)Cc2ccccc2)cc1 (stereo not drawn) [compound 13]	67	–
COC(=O)Cc1ccc(CS(=O)(=O)N[C@H](COC(C)(C)C)C(=O)NCC(=O)NCc2ccc(C(=N)N)cc2)cc1 [compound 14]	70	–
CC(C)(C)OC[C@@H](NS(=O)(=O)Cc1ccc(Cl)c(Cl)c1)C(=O)NCC(=O)NCc1ccc(C(=N)N)cc1 [compound 16]	83	–
CC(C)(C)OC[C@@H](NS(=O)(=O)Cc1cccc(C(=O)O)c1)C(=O)NCC(=O)NCc1ccc(C(=N)N)cc1 [compound 19]	130	–
COC(=O)c1ccc(CS(=O)(=O)N[C@H](COC(C)(C)C)C(=O)NCC(=O)NCc2ccc(C(=N)N)cc2)cc1 [compound 21]	160	–
CC(C)(C)OCC(NS(=O)(=O)Cc1ccc(C(=O)O)cc1)C(=O)NC(CO)C(=O)NCc1ccc(C(=N)N)cc1 (stereo not drawn) [compound 27]	270	–
CC(C)(C)OC[C@@H](NS(=O)(=O)CCc1cccc2ccccc12)C(=O)NCC(=O)NCc1ccc(C(=N)N)cc1 [compound 28]	280	–

Now from value to molecule, other results behind:

Ki [1, 3] [nM]	Molecule	further results
14	CC(C)(C)OC[C@@H](NS(=O)(=O)Cc1ccc(Cl)cc1)C(=O)NCC(=O)NCc1ccc(C(=N)N)cc1 [compound 3]	–
36	CC(C)(C)OC[C@@H](NS(=O)(=O)Cc1ccc(F)cc1)C(=O)NCC(=O)NCc1ccc(C(=N)N)cc1 [compound 9]	–
53	CC(C)(C)OC[C@@H](NS(=O)(=O)Cc1ccc(C(=O)O)cc1)C(=O)NCC(=O)NCc1ccc(C(=N)N)cc1 [compound 10]	–
65	CC(C)(C)OC[C@@H](NS(=O)(=O)Cc1ccc(C#N)cc1)C(=O)NCC(=O)NCc1ccc(C(=N)N)cc1 [compound 12]	–
78	CC(C)(C)OC[C@@H](NS(=O)(=O)Cc1ccc2ccccc2c1)C(=O)NCC(=O)NCc1ccc(C(=N)N)cc1 [compound 15]	–
88	CC(C)(C)OC[C@@H](NS(=O)(=O)CCc1ccccc1)C(=O)NCC(=O)NCc1ccc(C(=N)N)cc1 [compound 17]	–
140	CC(C)(C)OC[C@@H](NS(=O)(=O)Cc1ccccc1C(=O)O)C(=O)NCC(=O)NCc1ccc(C(=N)N)cc1 [compound 20]	–
170	CC(C)(C)OC[C@@H](NS(=O)(=O)Cc1ccncc1)C(=O)NCC(=O)NCc1ccc(C(=N)N)cc1 [compound 22]	–
170	CC(C)(C)OC[C@@H](NS(=O)(=O)Cc1ccc(CC(=O)O)cc1)C(=O)NCC(=O)NCc1ccc(C(=N)N)cc1 [compound 23]	–
260	N=C(N)c1ccc(CNC(=O)CNC(=O)[C@@H](Cc2ccc(C(=N)N)cc2)NS(=O)(=O)Cc2ccccc2)cc1 [compound 26]	–
670	N=C(N)c1ccc(CNC(=O)CNC(=O)[C@@H](Cc2c[nH]cn2)NS(=O)(=O)Cc2ccccc2)cc1 [compound 32]	–
26000	CC(C)(C)OC[C@@H](NS(=O)(=O)Cc1ccccc1)C(=O)NCC(=O)NCc1ccc(C(N)=NO)cc1 [compound 33]	–
